Among the test systems are A549 NSCLC; CCRF-CEM leukemia; NCI-H522 lung; SF-295 CNS; UACC-62 melanoma; A498 renal; SN12C renal; DU-145 prostate; HS 578T breast; MCF7 breast.
What all share (experiment): DTP human tumour cell line panel, 48 h

Molecules are shown by their SMILES.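 Five compound concentrations were applied to cells in 96-well plates for 48 hours; endpoints were derived by simple linear interpolation of the resulting dose-response curve. GI50: concentration for 50% inhibition of growth. TGI marks complete inhibition of growth.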 Some results are limits rather than exact numbers.

For `O=c1oc2c3ccc4ccccc4c3n(CCN3CCOCC3)c2c2ccccc12`, the concentration for total growth inhibition (TGI) (in general, the concentration giving total growth inhibition) with A549 NSCLC is above 100 µM; in the test on CCRF-CEM leukemia, 15.2 µM; with NCI-H522 lung, above 100 µM; in the test on SF-295 CNS, above 100 µM; with UACC-62 melanoma, above 100 µM.
On to `COc1ccc(C(=O)C(c2ccc(OC)cc2)C2C(=O)Oc3ccccc32)cc1` (centres undefined), for which the GI50 in the test with A498 renal, in the test on A549 NSCLC, in the test with CCRF-CEM leukemia, with NCI-H522 lung, with SF-295 CNS and in the test on SN12C renal was above 100 µM throughout. In addition, the GI50 (in general, the concentration at which growth is held to half of that of the control) in the test with UACC-62 melanoma was above 100 µM. The TGI in the test on A498 renal, in the test on A549 NSCLC, with CCRF-CEM leukemia, in the test on NCI-H522 lung, in the test with SF-295 CNS and with SN12C renal was above 100 µM each time. Besides, the concentration for total growth inhibition (TGI) in the test with UACC-62 melanoma is above 100 µM.
`Cc1cc(Cl)ccc1NC(=O)/C(Cl)=C(/Cl)C(=O)O`: the concentration for total growth inhibition (TGI) with A549 NSCLC is above 100 µM; in the test on CCRF-CEM leukemia it was above 100 µM; in the test with DU-145 prostate, 61.4 µM; with HS 578T breast it was 61.6 µM; in the test on MCF7 breast, 50.5 µM; in the test on NCI-H522 lung, 32.7 µM. Further, the TGI in the test with SF-295 CNS was above 100 µM; in the test with SN12C renal, 35 µM; in the test on UACC-62 melanoma, 48.8 µM.
Consider `COc1cc(C2c3cc4c(cc3[C@H](NC(=O)c3cccs3)C3COC(=O)[C@H]23)OCO4)cc(OC)c1OC` (some centres undefined), for which the TGI in the test on A498 renal is 0.0481 µM; in the test with A549 NSCLC it was 37.1 µM; with MCF7 breast, 31.3 µM; in the test on NCI-H522 lung, 0.0213 µM; in the test with SN12C renal, 19.5 µM; with UACC-62 melanoma it was above 100 µM.
`O=C1OC(c2ccccc2)C2CC3CC4(CCC3CN12)OCCO4` (centres undefined): the TGI was above 100 µM with A498 renal; above 100 µM in the test with A549 NSCLC; above 100 µM in the test on CCRF-CEM leukemia; 1.57 µM in the test with NCI-H522 lung; above 100 µM with SF-295 CNS; above 100 µM in the test on SN12C renal. In the test on UACC-62 melanoma, this compound returned a total growth inhibition concentration (TGI) above 100 µM.
For the compound `COc1ccc2nc3cc(Cl)ccc3c(NCCC(=O)OCC(O)C(O)C(O[C@H](C)C(=O)NC(C)C(=O)NC(CCC(N)=O)C(=O)OCc3ccccc3)C(C=O)NC(C)=O)c2c1` (some centres undefined), the concentration for total growth inhibition (TGI) in the test on A498 renal was 37.7 µM; with A549 NSCLC it was 32.4 µM; in the test with CCRF-CEM leukemia it was above 100 µM; with NCI-H522 lung, 28 µM; in the test on SF-295 CNS, 34.3 µM; with SN12C renal it was 31.4 µM. In the test with UACC-62 melanoma, this compound yielded a TGI of 34 µM.
As for `COc1cc(-c2cc(/C=C/C(=O)c3ccc4c(c3)OCO4)[nH]n2)cc(OC)c1OC`, the GI50 in the test on A498 renal is 2.76 µM; with A549 NSCLC, 4.32 µM; in the test on CCRF-CEM leukemia it was 1.57 µM; with DU-145 prostate it was 2.72 µM; in the test with HS 578T breast, 3.71 µM; in the test on NCI-H522 lung it was 1.03 µM. Further, the GI50 in the test with SN12C renal is 3.94 µM; with UACC-62 melanoma it was 4.67 µM. In addition, the total growth inhibition concentration (TGI) with A498 renal was 15.4 µM; in the test with A549 NSCLC, above 100 µM; with CCRF-CEM leukemia, 5.96 µM; in the test with DU-145 prostate, 9.56 µM; in the test on HS 578T breast, 78.7 µM; in the test with NCI-H522 lung, 2.35 µM. The TGI in the test on SN12C renal and in the test on UACC-62 melanoma was above 100 µM in each case.
With `COc1ccc(C(=O)/C(=N/Nc2ccccc2)c2ccc(OC)cc2)cc1`, the TGI with A549 NSCLC, in the test on NCI-H522 lung, in the test on SF-295 CNS, in the test with SN12C renal and in the test with UACC-62 melanoma was above 100 µM throughout.
Consider `Cc1cc(C)nc(NS(=O)(=O)c2ccc(NC(=O)c3cccc4c(Nc5ccc(S(=O)(=O)Nc6nc(C)cc(C)n6)cc5)c5ccccc5nc34)cc2)n1`, for which the TGI with A498 renal was determined as 35.9 µM; in the test with A549 NSCLC, 68.2 µM; with CCRF-CEM leukemia, 69.6 µM; in the test with NCI-H522 lung, 32.8 µM; in the test with SF-295 CNS it was 51.5 µM; in the test on SN12C renal, 41.1 µM. Besides, the concentration for total growth inhibition (TGI) in the test with UACC-62 melanoma is 57.3 µM.
For `CN(C)c1ccc(/C=C/C(=O)c2ccccc2)cc1Br`, the TGI in the test on A498 renal is above 100 µM; in the test with A549 NSCLC it was above 100 µM; in the test on CCRF-CEM leukemia, 62.7 µM; in the test on NCI-H522 lung it was 31.4 µM; with SF-295 CNS it was 45.7 µM; in the test on SN12C renal, 45.2 µM. For the same compound, the total growth inhibition concentration (TGI) with UACC-62 melanoma was determined as 32.3 µM.
For `C[C@]12CCC3[C@@H](C[C@H]4OC(=O)[C@@]35CCC(=O)C=C45)C1CCC2=O` (some centres undefined), the TGI with A549 NSCLC, in the test on CCRF-CEM leukemia, with NCI-H522 lung, in the test with SF-295 CNS and in the test with SN12C renal was above 100 µM in each case.
Regarding `CCOC(=O)NC(=O)c1cn(CCCCCOC(=O)NCCCCCCNC(=O)OCCCCCn2cc(C(=O)NC(=O)OCC)c(=O)[nH]c2=O)c(=O)[nH]c1=O`, the TGI in the test on A498 renal, in the test with A549 NSCLC, with CCRF-CEM leukemia, in the test on NCI-H522 lung, in the test with SF-295 CNS and in the test with SN12C renal was above 100 µM each time. The same compound yielded a total growth inhibition concentration (TGI) in the test with UACC-62 melanoma above 100 µM.
Turning to `CN(C)c1ccccc1CC(c1c[nH]c2ccccc12)c1c[nH]c2ccccc12`, the TGI came out at 31.1 µM with A498 renal; 22.2 µM in the test with A549 NSCLC; 26.6 µM with CCRF-CEM leukemia; 26.1 µM in the test with NCI-H522 lung; 24.4 µM with SF-295 CNS; 12.7 µM in the test with SN12C renal. Moreover, the TGI in the test on UACC-62 melanoma turned out to be 27.6 µM.
`N#Cc1ccc(/C=N\N2C(=O)c3ccccc3C2=O)cc1`: the TGI with A498 renal, in the test with A549 NSCLC, in the test on CCRF-CEM leukemia, with SF-295 CNS, in the test with SN12C renal and in the test on UACC-62 melanoma was above 100 µM in each case.
`O=C1C(c2ccc([N+](=O)[O-])cc2)=[N+]([O-])c2ccccc21`: the TGI in the test with A549 NSCLC was above 100 µM; in the test with CCRF-CEM leukemia it was above 100 µM; in the test with NCI-H522 lung, 20.3 µM; in the test with SF-295 CNS, above 100 µM; with SN12C renal, 93.5 µM; in the test on UACC-62 melanoma it was 40.5 µM.
Consider `O=c1c2cc(Br)ccc2[nH]c(=S)n1-c1ccc(Br)cc1`, for which the concentration for total growth inhibition (TGI) with A498 renal, with A549 NSCLC, with NCI-H522 lung, in the test on SF-295 CNS and in the test with SN12C renal was above 100 µM throughout.

The values are drawn from PubChem BioAssay (NCI).
